Measured values from US9737607B2, “Polymer, and pharmaceutical composition employing the same” (INDUSTRIAL TECHNOLOGY RESEARCH INSTITUTE, priority 2014, dated 2017).

Columns and labels:
[1] = test system: Sal. Typhimurium TA98 strain; assay: Ames test, TA98; conditions: without S9, positive control 100 μL/plate
Description: (§1) The Ames test was carried out using Sal. Typhimurium TA98 strain and Sal. Typhimurium TA100 strain without an enzyme for activating metabolism of drugs (S9).
(§2) The Ames test was carried out using Sal. Typhimurium TA98 strain and Sal. Typhimurium TA100 strain with an enzyme for activating metabolism of drugs (S9). DMSO (100 μL/plate) was used as negative control, and (+)Benzo[α]pyrene (100 μL/plate) was used as positive control.

[2] = test system: Sal. Typhimurium TA100 strain; assay: Ames test, TA100; conditions: without S9, positive control 100 μL/plate
Description: as §1, §2

## Nc1ccc([N+](=O)[O-])cc1N [NOPD, 4-nitro-o-phenylenediamine]
[1]
  TA98 (CFU/plate): 1200 CFU/plate
[2]
  TA100 (CFU/plate): 1019 CFU/plate
